Assay results: ChEMBL document CHEMBL1138549, “Synthesis of new 2-substituted pyrido[2,3-d]pyrimidin-4(1H)-ones and their antibacterial activity” (2009)
Converted amounts (≈) assume the structure as drawn. The source made the active and inactive calls. The rule behind the calls is not given here.

How the values were obtained:
Klebsiella pneumoniae = experiment: Antibacterial activity against Klebsiella pneumoniae MTCC 109 after 24 hrs by NCCLS M7-A5 method; assay type: functional; settings: MTCC 109, 24 h
Escherichia coli = experiment: Antibacterial activity against Escherichia coli MTCC 722 after 24 hrs by NCCLS M7-A5 method; assay type: functional; settings: MTCC 722, 24 h
Aspergillus niger = experiment: Antifungal activity against Aspergillus niger at 200 ug/ml; assay type: functional, organism-based
Candida albicans = experiment: Antifungal activity against Candida albicans at 200 ug/ml; assay type: functional, organism-based
MCF7 = experiment: Cytotoxicity against human MCF7 cells up to 150 ug/ml; assay type: functional, cell-based
Staphylococcus aureus = experiment: Antibacterial activity against Staphylococcus aureus MTCC 96 after 24 hrs by NCCLS M7-A5 method; assay type: functional; settings: MTCC 96, 24 h
Bacillus subtilis = experiment: Antibacterial activity against Bacillus subtilis MTCC 441 after 24 hrs by NCCLS M7-A5 method; assay type: functional; settings: MTCC 441, 24 h

Compound | MIC (Klebsiella pneumoniae) [µg/mL] | MIC (Escherichia coli) [µg/mL] | MIC (Staphylococcus aureus) [µg/mL] | MIC (Bacillus subtilis) [µg/mL] | Activity (Aspergillus niger) | Activity (Candida albicans) | Activity (MCF7)
Cc1cc(C)c2c(=O)[nH]c(-c3cc(C)c(O)c(C)c3)nc2n1 | 12.5 (≈ 42.3 µM) | 6.25 (≈ 21.2 µM) | 6.25 (≈ 21.2 µM) | 12.5 (≈ 42.3 µM) | inactive | inactive | Not toxic
COc1ccc(C2NC(=O)c3c(C)cc(C)nc3N2)c(O)c1 (configuration not stated) | 25 (≈ 83.5 µM) | 50 (≈ 167 µM) | 25 (≈ 83.5 µM) | 25 (≈ 83.5 µM) | inactive | inactive | Not toxic
Cc1cc(C)c2c(n1)NC(c1cc(C)c(O)c(C)c1)NC2=O (configuration not stated) | 12.5 (≈ 42 µM) | 6.25 (≈ 21 µM) | 3.25 (≈ 10.9 µM) | 3.25 (≈ 10.9 µM) | inactive | inactive | Not toxic
COc1cc(-c2nc3nc(C)cc(C)c3c(=O)[nH]2)cc(OC)c1OC | 6.25 (≈ 18.3 µM) | 25 (≈ 73.2 µM) | 6.25 (≈ 18.3 µM) | 12.5 (≈ 36.6 µM) | inactive | inactive | Not toxic
COc1ccc(C2NC(=O)c3c(C)cc(C)nc3N2)cc1OC (configuration not stated) | 12.5 (≈ 39.9 µM) | 6.25 (≈ 19.9 µM) | 3.25 (≈ 10.4 µM) | 3.25 (≈ 10.4 µM) | inactive | inactive | Not toxic
Cc1cc(C)c2c(n1)NC(c1ccccc1O)NC2=O (configuration not stated) | 50 (≈ 186 µM) | 50 (≈ 186 µM) | 50 (≈ 186 µM) | 25 (≈ 92.8 µM) | inactive | inactive | Not toxic
COc1ccc(C2NC(=O)c3c(C)cc(C)nc3N2)c(OC)c1 (configuration not stated) | 12.5 (≈ 39.9 µM) | 25 (≈ 79.8 µM) | 12.5 (≈ 39.9 µM) | 3.25 (≈ 10.4 µM) | inactive | inactive | Not toxic
O=C(O)c1cn(C2CC2)c2cc(N3CCNCC3)c(F)cc2c1=O [CIPROFLOXACIN] | 0.78 (≈ 2.35 µM) | – | 0.39 (≈ 1.18 µM) | 0.78 (≈ 2.35 µM) | – | – | –
COc1cc(C2NC(=O)c3c(C)cc(C)nc3N2)cc(OC)c1OC (configuration not stated) | 1.25 (≈ 3.64 µM) | 3.25 (≈ 9.46 µM) | 1.25 (≈ 3.64 µM) | 3.25 (≈ 9.46 µM) | inactive | inactive | Not toxic
CC(=O)Oc1ccc(-c2nc3nc(C)cc(C)c3c(=O)[nH]2)cc1 | 50 (≈ 162 µM) | 25 (≈ 80.8 µM) | 25 (≈ 80.8 µM) | 25.5 (≈ 82.4 µM) | inactive | inactive | Not toxic
Cc1cc(C)c2c(n1)NC(c1ccco1)NC2=O (configuration not stated) | 12.5 (≈ 51.4 µM) | 25 (≈ 103 µM) | 12.5 (≈ 51.4 µM) | 3.25 (≈ 13.4 µM) | inactive | inactive | Not toxic
Cc1cc(C)c2c(n1)NC(c1cccc(Cl)c1Cl)NC2=O (configuration not stated) | 100 (≈ 310 µM) | – | 50 (≈ 155 µM) | 25 (≈ 77.6 µM) | inactive | inactive | Not toxic
Cc1cc(C)c2c(n1)NC(c1cccc(C)c1C)NC2=O (configuration not stated) | 25 (≈ 88.9 µM) | 12.5 (≈ 44.4 µM) | 12.5 (≈ 44.4 µM) | 6.25 (≈ 22.2 µM) | inactive | inactive | Not toxic
Cc1cc(C)c2c(n1)NC(c1cccs1)NC2=O (configuration not stated) | 25 (≈ 96.4 µM) | 12.5 (≈ 48.2 µM) | 12.5 (≈ 48.2 µM) | 6.25 (≈ 24.1 µM) | inactive | inactive | Not toxic
CC(=O)Oc1ccc(C2NC(=O)c3c(C)cc(C)nc3N2)cc1 (configuration not stated) | 50 (≈ 161 µM) | 25 (≈ 80.3 µM) | 12.5 (≈ 40.1 µM) | 6.25 (≈ 20.1 µM) | inactive | inactive | Not toxic
COc1ccc(C2NC(=O)c3c(C)cc(C)nc3N2)cc1 (configuration not stated) | 6.25 (≈ 22.1 µM) | 3.25 (≈ 11.5 µM) | 12.5 (≈ 44.1 µM) | 6.25 (≈ 22.1 µM) | inactive | inactive | Not toxic
COc1cc(C2NC(=O)c3c(C)cc(C)nc3N2)ccc1O (configuration not stated) | 50 (≈ 167 µM) | 50 (≈ 167 µM) | 1.25 (≈ 4.18 µM) | 12.5 (≈ 41.8 µM) | inactive | inactive | Not toxic

Further lines, with some results ahead:

MIC (Klebsiella pneumoniae) [µg/mL] | MIC (Escherichia coli) [µg/mL] | MIC (Staphylococcus aureus) [µg/mL] | MIC (Bacillus subtilis) [µg/mL] | Compound | Activity (Aspergillus niger) | Activity (Candida albicans) | Activity (MCF7)
25 (≈ 88.9 µM) | 12.5 (≈ 44.4 µM) | 12.5 (≈ 44.4 µM) | 25 (≈ 88.9 µM) | COc1ccc(-c2nc3nc(C)cc(C)c3c(=O)[nH]2)cc1 | inactive | inactive | Not toxic
50 (≈ 168 µM) | 50 (≈ 168 µM) | 50 (≈ 168 µM) | 50 (≈ 168 µM) | COc1ccc(-c2nc3nc(C)cc(C)c3c(=O)[nH]2)c(O)c1 | inactive | inactive | Not toxic
50 (≈ 207 µM) | 25 (≈ 104 µM) | 25 (≈ 104 µM) | 12.5 (≈ 51.8 µM) | Cc1cc(C)c2c(=O)[nH]c(-c3ccco3)nc2n1 | inactive | inactive | Not toxic
50 (≈ 179 µM) | 12.5 (≈ 44.7 µM) | 12.5 (≈ 44.7 µM) | 12.5 (≈ 44.7 µM) | Cc1cc(C)c2c(=O)[nH]c(-c3cccc(C)c3C)nc2n1 | inactive | inactive | Not toxic
50 (≈ 161 µM) | 25 (≈ 80.3 µM) | 25 (≈ 80.3 µM) | 12.5 (≈ 40.1 µM) | COc1ccc(-c2nc3nc(C)cc(C)c3c(=O)[nH]2)c(OC)c1 | inactive | inactive | Not toxic
– | – | 100 (≈ 312 µM) | 50 (≈ 156 µM) | Cc1cc(C)c2c(=O)[nH]c(-c3cccc(Cl)c3Cl)nc2n1 | inactive | inactive | Not toxic
50 (≈ 168 µM) | 50 (≈ 168 µM) | 12.5 (≈ 42 µM) | 25 (≈ 84.1 µM) | COc1cc(-c2nc3nc(C)cc(C)c3c(=O)[nH]2)ccc1O | inactive | inactive | Not toxic
50 (≈ 194 µM) | 12.5 (≈ 48.6 µM) | 25 (≈ 97.2 µM) | 12.5 (≈ 48.6 µM) | Cc1cc(C)c2c(=O)[nH]c(-c3cccs3)nc2n1 | inactive | inactive | Not toxic
12.5 (≈ 40.1 µM) | 12.5 (≈ 40.1 µM) | 6.25 (≈ 20.1 µM) | 6.25 (≈ 20.1 µM) | COc1ccc(-c2nc3nc(C)cc(C)c3c(=O)[nH]2)cc1OC | inactive | inactive | Not toxic
100 (≈ 374 µM) | 50 (≈ 187 µM) | 50 (≈ 187 µM) | 50 (≈ 187 µM) | Cc1cc(C)c2c(=O)[nH]c(-c3ccccc3O)nc2n1 | inactive | inactive | Not toxic
